Test results taken from paper PMC2766634 (Journal of medicinal chemistry, 2009).
Marks after values point to notes of the source that are not given here.

Assays:
[1] = system: G. lamblia (WB/C6, GS/M, 106, and 713); assay: Antigiardial growth inhibition; format: cell-based, Giardia lamblia; conditions: for selectivity ratio, IC50/EC50: IC50 in HeLa cells / EC50 in Giardia
[2] = system: HeLa cells; assay: Cytotoxicity assay; format: cell-based, human; conditions: for IC50: Homo sapiens, HeLa, 48 h, read-out: toxicity in HeLa cells, pIC50 (mean ± SE) (converted)
[3] = Cyclic voltammetry in DMSO; format: physicochemical; conditions: for E1/2 in DMSO (half-wave potential, 0/−1 reduction), mean ± SE: cyclic voltammetry, 0.10 M NBu4PF6 in DMSO, 25 °C, 100 mV/s; for E1/2 more positive than Mz: in DMSO, relative to Mz
[4] = system: G. lamblia GS/M; assay: Murine G. lamblia infection model; format: in vivo, Giardia lamblia in C57BL/6 mice; conditions: mice, five doses over 3 days; for effect on infection (trophozoites in small intestine) at 10 mg/kg: 10 mg/kg oral gavage; for effect on infection (trophozoites in small intestine) at 2 mg/kg: 2 mg/kg oral gavage
[5] = Cyclic voltammetry in water pH 7.0; format: physicochemical; conditions: pH 7.0 phosphate buffer, 0.1 M KCl, 25 °C

Row | Compound | E1/2 in DMSO (half-wave potential, 0/−1 reduction), mean ± SE [3] | IC50 [2] [µM] | selectivity ratio, IC50/EC50 [1] | effect on infection (trophozoites in small intestine) at 10 mg/kg [4] | Ep in water (peak potential), mean ± SE [5] [V vs SCE] | other results
1 | Cc1ccc(C(Br)C(Br)c2ncc([N+](=O)[O-])n2C)cc1 (centres unmarked) [compound 3, reference compound] | −1.489 ^d ± 0.001 V vs Fc |  |  |  |  | increased antigiardial activity over Mz ([1]; relative to Mz): 40 fold; selectivity ratio lower than that of Mz ([1]; relative to Mz): > 10 fold; more toxic than Mz in HeLa ([2]; relative to Mz): > 500 fold
2 | Cn1c([N+](=O)[O-])cnc1/C=C/c1cccc(I)c1 [compound 18, 2-[(E)-2-(3-Iodophenyl)vinyl]-1-methyl-5-nitro-1H-imidazole] | −1.494 ± 0.004 V vs Fc | 31.6 |  |  |  | 
3 | Cn1c([N+](=O)[O-])cnc1/C=C/c1ccc2ccccc2c1 [compound 26, 1-Methyl-2-[(E)-2-(2-naphthyl)vinyl]-5-nitro-1H-imidazole] | −1.509 ± 0.001 V vs Fc | 97.7 | 1,622 |  |  | 
4 | Cn1c([N+](=O)[O-])cnc1/C=C/c1ccco1 [compound 29, 2-[(E)-2-(2-Furyl)vinyl]-1-methyl-5-nitro-1H-imidazole] | −1.504 ± 0.003 V vs Fc | 93.3 | 2,754 | complete clearance of the infection |  | E1/2 more positive than Mz [3]: 50–65 mV
5 | Cc1ccccc1/C=C/c1ncc([N+](=O)[O-])n1C [compound 6, 1-Methyl-2-[(E)-2-(2-methylphenyl)vinyl]-5-nitro-1H-imidazole] | −1.512 ± 0.001 V vs Fc | 93.3 |  |  | −0.621 ± 0.001 | 
6 | CCOC(OCC)c1ccc(/C=C/c2ncc([N+](=O)[O-])n2C)cc1 [compound 23, 2-{(E)-2-[4-(Diethoxymethyl)phenyl]vinyl}-1-methyl-5-nitro-1H-imidazole] | −1.518 ± 0.003 V vs Fc | 97.7 |  |  |  | 
7 | CC(=O)OC(c1ccc(Br)cc1)C(OC(C)=O)c1ncc([N+](=O)[O-])n1C (centres unmarked) [compound 37, 1-(1-Methyl-5-nitro-1H-imidazol-2-yl)-2-(4-bromophenyl)-ethane-1,2-diyl Diacetate] |  | 97.7 |  |  |  | 
8 | Cn1ccnc1/C=C/c1ncc([N+](=O)[O-])n1C [compound 28, 1-Methyl-2-[(E)-2-(1-methyl-1H-imidazol-2-yl)vinyl]-5-nitro-1H-imidazole] | −1.497 ± 0.001 V vs Fc |  | 1,202 | complete clearance of the infection | −0.594 ± 0.014 | E1/2 more positive than Mz [3]: 50–65 mV; effect on infection (trophozoites in small intestine) at 2 mg/kg [4]: significant activity
9 | Cn1c([N+](=O)[O-])cnc1CCc1ccc(Br)cc1 [compound 42, 2-[2-(4-Bromophenyl)ethyl]-1-methyl-5-nitro-1H-imidazole] | −1.592 ± 0.003 V vs Fc | 97.7 |  |  |  | 
10 | Cn1c([N+](=O)[O-])cnc1/C=C/c1cccc(F)c1 [compound 19, 2-[(E)-2-(3-Fluorophenyl)vinyl]-1-methyl-5-nitro-1H-imidazole] | −1.502 ± 0.001 V vs Fc |  |  | complete clearance of the infection | −0.613 ± 0.008 | effect on infection (trophozoites in small intestine) at 2 mg/kg [4]: significant activity
11 | Cn1c([N+](=O)[O-])cnc1/C=C/c1ccc(Br)cc1 [compound 12, 2-[(E)-2-(4-Bromophenyl)vinyl]-1-methyl-5-nitro-1H-imidazole] | −1.506 ± 0.002 V vs Fc |  |  | no significant activity | −0.605 ± 0.007 | effect on infection (trophozoites in small intestine) at 2 mg/kg [4]: no significant activity
12 | Cn1c([N+](=O)[O-])cnc1/C=C/c1ccsc1 [compound 31, 1-Methyl-5-nitro-2-[(E)-2-(3-thienyl)vinyl]-1H-imidazole] | −1.508 ± 0.002 V vs Fc |  | >1,023 |  | −0.595 ± 0.001 | 
13 | Cn1c([N+](=O)[O-])cnc1/C=C/c1ccccc1 [compound 5, 1-Methyl-5-nitro-2-[(E)-2-phenylvinyl]-1H-imidazole] | −1.517 ± 0.001 V vs Fc |  |  | complete clearance of the infection | −0.634 ± 0.004 | E1/2 more positive than Mz [3]: 30–50 mV
14 | Cc1cc(C)c(/C=C/c2ncc([N+](=O)[O-])n2C)c(C)c1 [compound 9, 1-Methyl-2-[(E)-2-(2,4,6-trimethylphenyl)vinyl]-5-nitro-1H-imidazole] | −1.529 ± 0.001 V vs Fc | 11 |  |  |  | E1/2 more positive than Mz [3]: 30–50 mV
15 | Cn1c([N+](=O)[O-])cnc1/C=C/c1cccs1 [compound 30, 1-Methyl-5-nitro-2-[(E)-2-(2-thienyl)vinyl]-1H-imidazole] | −1.528 ± 0.003 V vs Fc |  | 1,122 |  | −0.658 ± 0.001 | 
16 | 2-[(E)-2-(3a,7a-Dihydro-1,3-benzodioxol-5-yl)vinyl]-1-methyl-5-nitro-1H-imidazole [compound 27] | −1.584 ± 0.001 V vs Fc |  | 1,072 |  | −0.778 ± 0.002 | Activity against G. lamblia pEC50 (mean ± SE) ([1]; mean ± SE of average pEC50 of four isolates (WB/C6, GS/M, 106, 713)): 7.16 ± 0.34; toxicity in HeLa cells, pIC50 (mean ± SE) ([2]; 2 days culture, three separate experiments): 4.13 ± 0.10
17 | Cc1ncc([N+](=O)[O-])n1CCO [Mz, metronidazole, reference compound] |  |  |  | not parasite eradication |  | effect on infection (trophozoites in small intestine) at 2 mg/kg [4]: no significant effect
18 | Cn1c([N+](=O)[O-])cnc1/C=C/c1cccc2ccccc12 [compound 25, 1-Methyl-2-[(E)-2-(1-naphthyl)vinyl]-5-nitro-1H-imidazole] | −1.502 ± 0.004 V vs Fc |  | 1,000 |  |  | 
19 | Cc1ccc(/C=C/c2ncc([N+](=O)[O-])n2C)cc1 [compound 8, 1-Methyl-2-[(E)-2-(4-methylphenyl)vinyl]-5-nitro-1H-imidazole] | −1.522 ± 0.003 V vs Fc |  | >617 |  |  | 
20 | Cn1c([N+](=O)[O-])cnc1/C=C/c1ccc(Cl)cc1 [compound 15, 2-[(E)-2-(4-Chlorophenyl)vinyl]-1-methyl-5-nitro-1H-imidazole] | −1.503 ± 0.001 V vs Fc |  |  |  | −0.584 ± 0.001 | 
